Experimental data: patent EP3436445B1, “HISTONE DEMETHYLASE INHIBITORS” (Celgene Quanticel Research, Inc., priority 2016, dated 2017)

How the values were obtained:
JMJD3 = target: T1, JMJD3 (Homo sapiens, UniProt O15054); experiment: JMJD3 in vitro enzyme inhibition assay (AlphaScreen); format: biochemical; conditions: Table 5; 1 nM JMJD3, H3K27me3-biotin labeled peptide
T1 construct: purchased BPS Bioscience 50115
Text: This assay determines the ability of a test compound to inhibit Jarid1B, JMJD2C and JMJD3 demethylase activity. Baculovirus expressed Jarid1B (GenBank Accession #NM-006618, AA 2-751) was purchased from BPS Bioscience (Cat #50121) or custom made by MolecularThroughput. Baculovirus expressed JMJD2C (GenBank Accession #BC143571, AA 2-372) was purchased from BPS Bioscience (Cat#50105). Baculovirus expressed JMJD3 (GenBank Accession #NM-001080424, AA1043-end) was purchased from BPS Bioscience (Cat#50115).
The ability of test compounds to inhibit the activity of JMJD3 was determined in 384-well plate format under the following reaction conditions: 1 nM JMJD3, 250 nM H3K27me3-biotin labeled peptide (Anaspec cat # 64367), 1 µM alpha-ketoglutaric acid in assay buffer of 50 mM HEPES, pH7.3, 0.005% Brij35, 0.5 mM TCEP, 0.2 mg/ml BSA, 50 µM sodium L-ascorbate, 5 µM ammonium iron(II) sulfate. Reaction product is determined quantitatively by AlphaScreen detection after the addition of detection reagents anti-H3K27me1 antibody, 5 µg/ml AlphaScreen® Streptavidin-coated Donor beads, and 5 µg/ml AlphaScreen® Protein A Acceptor beads in 50 mM HEPES, pH7.3, 10 mM NaCl, 0.005% Brij35, 10 mM EDTA, 2 mg/ml BSA.
The assay reaction was initiated by the following: 3 µl of the mixture of 750 nM H3K27me3-biotin labeled peptide and 3 µM alpha-ketoglutaric acid with 3 µl of 11-point serial diluted inhibitor in 3% DMSO are added to each well of 384 well Proxiplate (Perkin Elmer), followed by the addition of 3 µl of 3 nM JMJD3 to initiate the reaction. The reaction mixture is incubated at room temperature for 20 minutes, and terminated by the addition of 3 µl of appropriate dilution of anti H3K27me1 antibody in 50 mM HEPES, pH7.3, 10 mM NaCl, 0.005% Brij35, 10 mM EDTA, 2 mg/ml BSA. Plates will then incubated at room temperature for 1 hour, followed by addition of 3 µl of 25 µg/ml AlphaScreen® Streptavidin-coated Donor beads and AlphaScreen® Protein A Acceptor beads in 50 mM HEPES, pH7.3, 10 mM NaCl, 0.005% Brij35, 10 mM EDTA, 2 mg/ml BSA. Plates will then be read by EnVision Multilabel Reader in AlphaScreen mode after minimum 2 hour incubation at room temperature. The AlphaScreen signal for each well is used to determine inhibition constant (IC50).

FBXL10 = target: T2, FBXL10 (Homo sapiens, UniProt Q8NHM5); experiment: FBXL10 in vitro enzyme inhibition assay (AlphaScreen); format: biochemical; conditions: Table 5
T2 construct: purchased BPS Bioscience 50120
T2 sequence (Q8NHM5 1-650): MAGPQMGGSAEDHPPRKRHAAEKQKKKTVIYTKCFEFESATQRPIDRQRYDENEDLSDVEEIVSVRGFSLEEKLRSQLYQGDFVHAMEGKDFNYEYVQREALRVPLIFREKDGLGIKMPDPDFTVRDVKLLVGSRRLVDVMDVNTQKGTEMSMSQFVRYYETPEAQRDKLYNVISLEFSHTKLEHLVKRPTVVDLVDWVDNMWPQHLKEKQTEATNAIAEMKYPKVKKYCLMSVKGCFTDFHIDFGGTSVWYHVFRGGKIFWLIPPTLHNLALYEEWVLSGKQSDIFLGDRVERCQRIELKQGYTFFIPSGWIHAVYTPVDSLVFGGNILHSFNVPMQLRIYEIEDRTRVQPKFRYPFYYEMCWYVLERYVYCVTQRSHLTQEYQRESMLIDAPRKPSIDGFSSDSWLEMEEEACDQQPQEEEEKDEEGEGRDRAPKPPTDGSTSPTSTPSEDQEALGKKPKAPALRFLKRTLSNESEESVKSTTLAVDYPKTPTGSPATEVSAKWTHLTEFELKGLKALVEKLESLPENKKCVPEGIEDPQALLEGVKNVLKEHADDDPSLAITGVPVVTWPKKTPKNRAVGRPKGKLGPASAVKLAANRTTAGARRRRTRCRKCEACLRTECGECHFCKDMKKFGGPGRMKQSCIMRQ
Text: This assay determines the ability of a test compound to inhibit FBXL11, FBXL10, and PHF8 demethylase activity. Baculovirus expressed FBXL11 (GenBank Accession #NM_012308, AA1-1162) was purchased from BPS Bioscience (Cat#50102). Baculovirus expressed FBXL10 (GenBank Accession #NM_032590, AA 1-650) was purchased from BPS Bioscience (Cat #50120). Baculovirus expressed PHF8 (GenBank Accession NP_055922.1) was purchased from Active Motif (Cat#31435).
The ability of test compounds to inhibit the activity of FBXL10 was determined in 384-well plate format under the following reaction conditions: 0.3 nM FBXL10, 30 nM H3K36me2-biotin labeled peptide (Anaspec cat # 64442), 0.2 µM alpha-ketoglutaric acid in assay buffer of 50 mM HEPES, pH7.3, 0.005% Brij35, 0.5 mM TCEP, 0.2 mg/ml BSA, 50 µM sodium L-ascorbate, 5 µM ammonium iron(II) sulfate. Reaction product is determined quantitatively by AlphaScreen detection after the addition of detection reagents anti-H3K36me1 antibody, AlphaScreen® Streptavidin-coated Donor beads, and AlphaScreen® Protein A Acceptor beads in 50 mM HEPES, pH7.3, 10 mM NaCl, 0.005% Brij35, 5 mM EDTA, 2 mg/ml BSA to final 10 µg/ml beads.
The assay reaction was initiated by the following: 3 µl of the mixture of 90 nM H3K36me2-biotin labeled peptide and 0.6 µM alpha-ketoglutaric acid with 3 µl of 11-point serial diluted inhibitor in 3% DMSO are added to each well of 384 well Proxiplate (Perkin Elmer), followed by the addition of 3 µl of 0.9 nM FBXL10 to initiate the reaction. The reaction mixture is incubated at room temperature for 1 hour, and terminated by the addition of 3 µl of appropriate dilution of anti H3K36me1 antibody in 50 mM HEPES, pH7.3, 10 mM NaCl, 0.005% Brij35, 5 mM EDTA, 2 mg/ml BSA. Plates will then incubated at room temperature for 40 minutes, followed by addition of 3 µl of 50 µg/ml AlphaScreen® Streptavidin-coated Donor beads and AlphaScreen® Protein A Acceptor beads in 50 mM HEPES, pH7.3, 10 mM NaCl, 0.005% Brij35, 5 mM EDTA, 2 mg/ml BSA. Plates will then be read by EnVision Multilabel Reader in AlphaScreen mode after minimum 2 hour incubation at room temperature. The AlphaScreen signal for each well is used to determine inhibition constant (IC50).

T1 sequence (O15054 1043-1682 isoform O15054-1): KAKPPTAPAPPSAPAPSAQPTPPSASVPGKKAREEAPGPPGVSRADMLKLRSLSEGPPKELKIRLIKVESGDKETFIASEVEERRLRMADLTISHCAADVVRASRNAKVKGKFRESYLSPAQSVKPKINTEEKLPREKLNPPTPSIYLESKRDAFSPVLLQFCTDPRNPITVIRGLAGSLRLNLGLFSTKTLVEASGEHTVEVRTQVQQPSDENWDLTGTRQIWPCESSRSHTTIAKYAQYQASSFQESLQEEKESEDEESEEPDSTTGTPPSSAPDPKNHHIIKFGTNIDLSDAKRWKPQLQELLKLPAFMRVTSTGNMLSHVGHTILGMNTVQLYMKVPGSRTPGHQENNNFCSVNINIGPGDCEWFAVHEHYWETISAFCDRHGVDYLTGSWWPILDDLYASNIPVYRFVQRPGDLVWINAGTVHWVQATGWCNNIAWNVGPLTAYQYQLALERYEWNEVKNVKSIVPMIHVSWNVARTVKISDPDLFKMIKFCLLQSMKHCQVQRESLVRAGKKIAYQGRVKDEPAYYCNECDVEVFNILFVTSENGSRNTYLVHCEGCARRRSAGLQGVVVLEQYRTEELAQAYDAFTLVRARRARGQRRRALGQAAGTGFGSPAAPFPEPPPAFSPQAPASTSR

Row | SMILES | IC50 (JMJD3) [nM] | IC50 (FBXL10) [nM]
1 | Cc1ccc(Cn2cnc(-c3cc(-c4nn[nH]c4C(F)(F)F)ccn3)c2)cc1 [Example 65, 2-{1-[(4-methylphenyl)methyl]-1H-imidazol-4-yl}-4-[5-(trifluoromethyl)-1H-1,2,3-triazol-4-yl]pyridine] | > 10000 | ≤ 100
2 | Cc1ccccc1Cn1cnc(-c2cc(-c3nn[nH]c3C(F)(F)F)ccn2)c1 [Example 66, 2-{1-[(2-methylphenyl)methyl]-1H-imidazol-4-yl}-4-[5-(trifluoromethyl)-1H-1,2,3-triazol-4-yl]pyridine] | > 10000 | ≤ 100
3 | COc1ccc(Cn2cnc(-c3cc(-c4nn[nH]c4C(F)(F)F)ccn3)c2)cc1 [Example 67, 2-{1-[(4-methoxyphenyl)methyl]-1H-imidazol-4-yl}-4-[5-(trifluoromethyl)-1H-1,2,3-triazol-4-yl]pyridine] | > 10000 | ≤ 100
4 | Fc1ccc(Cn2cnc(-c3cc(-c4nn[nH]c4C(F)(F)F)ccn3)c2)c(F)c1 [Example 68, 2-{1-[(2,4-difluorophenyl)methyl]-1H-imidazol-4-yl}-4-[5-(trifluoromethyl)-1H-1,2,3-triazol-4-yl]pyridine] | > 10000 | ≤ 100
5 | Fc1cccc(F)c1Cn1cnc(-c2cc(-c3nn[nH]c3C(F)(F)F)ccn2)c1 [Example 69, 2-{1-[(2,6-difluorophenyl)methyl]-1H-imidazol-4-yl}-4-[5-(trifluoromethyl)-1H-1,2,3-triazol-4-yl]pyridine] | > 10000 | ≤ 100
6 | Cc1cc(F)ccc1Cn1cnc(-c2cc(-c3nn[nH]c3C(F)(F)F)ccn2)c1 [Example 70, 2-{1-[(4-fluoro-2-methylphenyl)methyl]-1H-imidazol-4-yl}-4-[5-(trifluoromethyl)-1H-1,2,3-triazol-4-yl]pyridine] | > 10000 | ≤ 100
7 | Cc1ccc(Cn2cnc(-c3cc(-c4nn[nH]c4C(F)(F)F)ccn3)c2)c(F)c1 [Example 71, 2-{1-[(2-fluoro-4-methylphenyl)methyl]-1H-imidazol-4-yl}-4-[5-(trifluoromethyl)-1H-1,2,3-triazol-4-yl]pyridine] | > 10000 | ≤ 100
8 | FC(F)(F)c1[nH]nnc1-c1ccnc(-c2cn(Cc3ccccc3)cn2)c1 [Example 72, 2-(1-benzyl-1H-imidazol-4-yl)-4-[5-(trifluoromethyl)-1H-1,2,3-triazol-4-yl]pyridine] | > 10000 | ≤ 100

More lines, now with the values ahead:

Row | IC50 (JMJD3) [nM] | IC50 (FBXL10) [nM] | SMILES
9 | > 10000 | ≤ 100 | CC(c1ccccc1)n1cnc(-c2cc(-c3nn[nH]c3C(F)(F)F)ccn2)c1 (stereo not drawn) [Example 73, 2-[1-(1-phenylethyl)-1H-imidazol-4-yl]-4-[5-(trifluoromethyl)-1H-1,2,3-triazol-4-yl]pyridine]
10 | > 10000 | ≤ 100 | CCC(c1ccccc1)n1cnc(-c2cc(-c3nn[nH]c3C(F)(F)F)ccn2)c1 (stereo not drawn) [Example 74, 2-[1-(1-phenylpropyl)-1H-imidazol-4-yl]-4-[5-(trifluoromethyl)-1H-1,2,3-triazol-4-yl]pyridine]
11 | > 10000 | 100 to 1000 | CC(C)C(c1ccccc1)n1cnc(-c2cc(-c3nn[nH]c3C(F)(F)F)ccn2)c1 (stereo not drawn) [Example 75, 2-[1-(2-methyl-1-phenylpropyl)-1H-imidazol-4-yl]-4-[5-(trifluoromethyl)-1H-1,2,3-triazol-4-yl]pyridine]
12 | > 10000 | 100 to 1000 | FC(F)(F)COc1ccccc1Cn1cnc(-c2cc(-c3nn[nH]c3C(F)(F)F)ccn2)c1 [Example 76, 2-(1-{[2-(2,2,2-trifluoroethoxy)phenyl]methyl}-1H-imidazol-4-yl)-4-[5-(trifluoromethyl)-1H-1,2,3-triazol-4-yl]pyridine]
13 | 1000 to 10000 | ≤ 100 | Fc1ccc(CCn2cnc(-c3cc(-c4nn[nH]c4C(F)(F)F)ccn3)c2)cc1 [Example 77]
14 | 1000 to 10000 | ≤ 100 | Fc1cccc(CCn2cnc(-c3cc(-c4nn[nH]c4C(F)(F)F)ccn3)c2)c1 [Example 78, 2-{1-[2-(3-fluorophenyl)ethyl]-1H-imidazol-4-yl}-4-[5-(trifluoromethyl)-1H-1,2,3-triazol-4-yl]pyridine]
15 | > 10000 | ≤ 100 | Fc1cccc(CCn2cnc(-c3cc(-c4nn[nH]c4C(F)(F)F)ccn3)c2)c1F [Example 79, 2-{1-[2-(2,3-difluorophenyl)ethyl]-1H-imidazol-4-yl}-4-[5-(trifluoromethyl)-1H-1,2,3-triazol-4-yl]pyridine]
16 | > 10000 | 100 to 1000 | Fc1cccc(Cl)c1CCn1cnc(-c2cc(-c3nn[nH]c3C(F)(F)F)ccn2)c1 [Example 80, 2-{1-[2-(2-chloro-6-fluorophenyl)ethyl]-1H-imidazol-4-yl}-4-[5-(trifluoromethyl)-1H-1,2,3-triazol-4-yl]pyridine]
17 | > 10000 | ≤ 100 | Fc1cc(F)c(CCn2cnc(-c3cc(-c4nn[nH]c4C(F)(F)F)ccn3)c2)cc1F [Example 81, 4-[5-(trifluoromethyl)-1H-1,2,3-triazol-4-yl]-2-{1-[2-(2,4,5-trifluorophenyl)ethyl]-1H-imidazol-4-yl}pyridine]
18 | > 10000 | ≤ 100 | Fc1cc(F)c(CCn2cnc(-c3cc(-c4nn[nH]c4C(F)(F)F)ccn3)c2)c(F)c1 [Example 82, 4-[5-(trifluoromethyl)-1H-1,2,3-triazol-4-yl]-2-{1-[2-(2,4,6-trifluorophenyl)ethyl]-1H-imidazol-4-yl}pyridine]
